Measurements from PubChem BioAssay (NCI).
Values joined by “and” are separate entries in the source; they are usually repeats but may differ in a detail not shown here. Equal entries are not always repeated.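 Briefly, cells in 96-well plates were exposed to five compound concentrations for 48 h, and endpoints were estimated by linear interpolation. GI50 = concentration required for 50% inhibition of growth. TGI is the concentration that stops growth completely.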

Columns and labels:
Assay in all cases: NCI tumour cell line growth inhibition, 48 h
MDA-MB-231 breast = system: MDA-MB-231 breast
A498 renal = system: A498 renal
SR leukemia = system: SR leukemia
NCI-H460 lung = system: NCI-H460 lung
SN12K1 renal = system: SN12K1 renal
DLD-1 colon = system: DLD-1 colon
T-47D breast = system: T-47D breast
SNB-78 CNS = system: SNB-78 CNS
EKVX NSCLC = system: EKVX NSCLC
HL-60(TB) leukemia = system: HL-60(TB) leukemia
HCT-116 colon = system: HCT-116 colon
COLO 205 colon = system: COLO 205 colon
MALME-3M melanoma = system: MALME-3M melanoma
U251 CNS = system: U251 CNS
OVCAR-5 ovarian = system: OVCAR-5 ovarian
M19-MEL melanoma = system: M19-MEL melanoma
RPMI-8226 leukemia = system: RPMI-8226 leukemia
HT29 colon = system: HT29 colon
M14 melanoma = system: M14 melanoma
NCI-H522 lung = system: NCI-H522 lung
MDA-N = system: MDA-N
HCT-15 colon = system: HCT-15 colon
SF-539 CNS = system: SF-539 CNS
P388/ADR leukemia = system: P388/ADR leukemia
HCC-2998 colon = system: HCC-2998 colon
BT-549 breast = system: BT-549 breast
MDA-MB-435 = system: MDA-MB-435
A549 NSCLC = system: A549 NSCLC
KM12 colon = system: KM12 colon
HOP-18 NSCLC = system: HOP-18 NSCLC
SW-620 colon = system: SW-620 colon
K-562 leukemia = system: K-562 leukemia
HS 578T breast = system: HS 578T breast
NCI-H23 lung = system: NCI-H23 lung
KM20L2 colon = system: KM20L2 colon
MCF7 breast = system: MCF7 breast
SNB-19 CNS = system: SNB-19 CNS
XF 498 CNS = system: XF 498 CNS
DMS 273 small cell lung = system: DMS 273 small cell lung
IGROV1 ovarian = system: IGROV1 ovarian
UACC-62 melanoma = system: UACC-62 melanoma
CCRF-CEM leukemia = system: CCRF-CEM leukemia
SF-268 CNS = system: SF-268 CNS
786-0 renal = system: 786-0 renal
UACC-257 melanoma = system: UACC-257 melanoma
SK-MEL-28 melanoma = system: SK-MEL-28 melanoma
SK-MEL-5 melanoma = system: SK-MEL-5 melanoma
P388 leukemia = system: P388 leukemia
RXF 393 renal = system: RXF 393 renal
DMS 114 small cell lung = system: DMS 114 small cell lung
ACHN renal = system: ACHN renal
OVCAR-8 ovarian = system: OVCAR-8 ovarian
SNB-75 CNS = system: SNB-75 CNS
TK-10 renal = system: TK-10 renal
RXF-631 renal = system: RXF-631 renal
SK-MEL-2 melanoma = system: SK-MEL-2 melanoma
PC-3 prostate = system: PC-3 prostate
OVCAR-4 ovarian = system: OVCAR-4 ovarian
DU-145 prostate = system: DU-145 prostate
LXFL 529 NSCLC = system: LXFL 529 NSCLC
CAKI-1 renal = system: CAKI-1 renal
UO-31 renal = system: UO-31 renal
SN12C renal = system: SN12C renal
LOX IMVI melanoma = system: LOX IMVI melanoma
HOP-92 NSCLC = system: HOP-92 NSCLC
NCI-H226 lung = system: NCI-H226 lung
MOLT-4 leukemia = system: MOLT-4 leukemia
SF-295 CNS = system: SF-295 CNS
NCI/ADR-RES ovarian = system: NCI/ADR-RES ovarian
HOP-62 NSCLC = system: HOP-62 NSCLC

SMILES: CN1N=C(N)c2cn(C3OC(COP(=O)(O)O)C(O)C3O)c3ncnc1c23 (stereo not drawn)
- TGI (MDA-MB-231 breast): 163 µM and 259 µM
- GI50 (A498 renal): 68.5 µM and 40.6 µM
- TGI (A498 renal): 391 µM and 1650 µM and 713 µM
- TGI (SR leukemia): 500 µM and > 1650 µM and > 5000 µM
- TGI (NCI-H460 lung): 500 µM and > 1650 µM and 3460 µM
- TGI (SN12K1 renal): > 5000 µM
- TGI (DLD-1 colon): 617 µM
- TGI (T-47D breast): 327 µM and 1650 µM and 269 µM
- TGI (SNB-78 CNS): 2910 µM
- TGI (EKVX NSCLC): 500 µM and 1650 µM and 360 µM
- TGI (HL-60(TB) leukemia): 114 µM and 123 µM and 116 µM
- TGI (HCT-116 colon): 468 µM and 1650 µM and > 4540 µM
- TGI (COLO 205 colon): 499 µM and > 1650 µM and 2170 µM
- TGI (MALME-3M melanoma): 305 µM and 1650 µM and 2090 µM
- TGI (U251 CNS): 500 µM and 1650 µM and > 5000 µM
- TGI (OVCAR-5 ovarian): 207 µM and 1650 µM and 475 µM
- TGI (M19-MEL melanoma): > 4220 µM
- GI50 (RPMI-8226 leukemia): 143 µM
- TGI (RPMI-8226 leukemia): 500 µM and > 4750 µM
- TGI (HT29 colon): 500 µM and 1650 µM and > 4630 µM
- TGI (M14 melanoma): 500 µM and 1650 µM and 1670 µM
- TGI (NCI-H522 lung): 500 µM and > 1650 µM and > 5000 µM
- GI50 (MDA-N): 25.2 µM
- TGI (MDA-N): 390 µM and > 1530 µM
- TGI (HCT-15 colon): 500 µM and 1650 µM and 2630 µM
- TGI (SF-539 CNS): 162 µM and 807 µM and 208 µM
- TGI (P388/ADR leukemia): 2.94 µM
- TGI (HCC-2998 colon): 500 µM and 1650 µM and > 4830 µM
- GI50 (BT-549 breast): 20.1 µM and 4.86 µM
- TGI (BT-549 breast): 135 µM and 626 µM and 114 µM
- TGI (MDA-MB-435): 363 µM and 671 µM
- TGI (A549 NSCLC): 500 µM and 1650 µM and > 4780 µM
- TGI (KM12 colon): 500 µM and > 1650 µM and > 5000 µM
- TGI (HOP-18 NSCLC): 333 µM
- TGI (SW-620 colon): 500 µM and > 1650 µM and > 4130 µM
- TGI (K-562 leukemia): 500 µM and > 1650 µM and > 5000 µM
- TGI (HS 578T breast): 232 µM and 341 µM and 144 µM
- TGI (NCI-H23 lung): 500 µM and 1650 µM and 4180 µM
- TGI (KM20L2 colon): > 4370 µM
- TGI (MCF7 breast): 500 µM and 1650 µM and 3650 µM
- TGI (SNB-19 CNS): 455 µM and 1650 µM and 3170 µM
- TGI (XF 498 CNS): 44.9 µM
- TGI (DMS 273 small cell lung): > 5000 µM
- TGI (IGROV1 ovarian): 500 µM and 1650 µM and 918 µM
- GI50 (UACC-62 melanoma): 22.6 µM and 96.1 µM
- TGI (UACC-62 melanoma): 290 µM and 1650 µM and 1880 µM
- TGI (CCRF-CEM leukemia): 500 µM and 1650 µM and > 5000 µM
- TGI (SF-268 CNS): 500 µM and 1650 µM and > 4850 µM
- TGI (786-0 renal): 500 µM and 1650 µM and > 3510 µM
- TGI (UACC-257 melanoma): 500 µM and 1650 µM and 4660 µM
- GI50 (SK-MEL-28 melanoma): 118 µM and 312 µM
- TGI (SK-MEL-28 melanoma): 500 µM and 1650 µM and 2420 µM
- TGI (SK-MEL-5 melanoma): 500 µM and > 1650 µM and > 4390 µM
- TGI (P388 leukemia): 7.87 µM
- GI50 (RXF 393 renal): 41.9 µM
- TGI (RXF 393 renal): 236 µM and 462 µM and 460 µM
- TGI (DMS 114 small cell lung): > 4300 µM

SMILES: CC(C)(O)/C=C/C(=O)[C@](C)(O)[C@H]1[C@H](O)C[C@@]2(C)[C@@H]3CC=C4[C@@H](C=C(O)C(=O)C4(C)C)[C@]3(C)C(=O)C[C@]12C
- GI50 (ACHN renal): 0.268 µM
- TGI (MDA-MB-231 breast): 0.0927 µM
- GI50 (A498 renal): 0.189 µM and 0.522 µM
- TGI (A498 renal): 0.392 µM and 1.09 µM
- GI50 (SR leukemia): 1.2 µM and 0.33 µM
- TGI (SR leukemia): > 4.6 µM and 9.08 µM and 14.5 µM
- TGI (OVCAR-8 ovarian): > 10 µM and 8.1 µM
- TGI (NCI-H460 lung): > 10 µM and 1.62 µM
- GI50 (DLD-1 colon): 0.291 µM and 0.721 µM
- TGI (DLD-1 colon): > 6.13 µM and 6.58 µM
- TGI (T-47D breast): 4.27 µM
- GI50 (SNB-75 CNS): 0.0721 µM and 0.193 µM
- GI50 (SNB-78 CNS): 0.737 µM
- TGI (SNB-78 CNS): 1.61 µM and 5.53 µM
- GI50 (TK-10 renal): 0.36 µM and 1.68 µM
- TGI (TK-10 renal): 0.77 µM and 3.23 µM
- GI50 (RXF-631 renal): 0.75 µM
- TGI (RXF-631 renal): > 4.22 µM and 3.61 µM
- TGI (SK-MEL-2 melanoma): 0.597 µM and 1.32 µM and 1.16 µM
- GI50 (HL-60(TB) leukemia): 0.265 µM and 1.1 µM
- TGI (HL-60(TB) leukemia): 0.935 µM and 2.54 µM
- TGI (HCT-116 colon): 3.63 µM and 7.31 µM and 1.15 µM
- GI50 (COLO 205 colon): 0.337 µM
- TGI (COLO 205 colon): > 10 µM and 7.92 µM and 1.35 µM
- GI50 (U251 CNS): 0.229 µM
- GI50 (M19-MEL melanoma): 0.929 µM and 2.16 µM
- TGI (M19-MEL melanoma): > 10 µM
- TGI (RPMI-8226 leukemia): 2.16 µM and 3.57 µM and 11 µM
- TGI (PC-3 prostate): 5.56 µM
- GI50 (NCI-H522 lung): 0.278 µM
- GI50 (HCT-15 colon): 0.273 µM
- TGI (HCT-15 colon): > 8.33 µM and 3.82 µM
- GI50 (SF-539 CNS): 0.253 µM
- GI50 (HCC-2998 colon): 0.319 µM
- TGI (BT-549 breast): 0.0362 µM
- GI50 (OVCAR-4 ovarian): 0.343 µM
- TGI (OVCAR-4 ovarian): 3.21 µM and 4.57 µM and 11.5 µM
- TGI (DU-145 prostate): 1.9 µM
- GI50 (LXFL 529 NSCLC): 0.712 µM
- TGI (LXFL 529 NSCLC): 1.55 µM and 6.67 µM
- TGI (MDA-MB-435): 0.885 µM
- TGI (A549 NSCLC): > 5.82 µM and 8.6 µM and 10.3 µM
- GI50 (CAKI-1 renal): 0.211 µM and 0.436 µM
- TGI (CAKI-1 renal): 0.473 µM and 0.813 µM
- TGI (KM12 colon): > 10 µM and 2.33 µM
- GI50 (HOP-18 NSCLC): 0.276 µM and 0.602 µM
- TGI (HOP-18 NSCLC): 1.33 µM and 1.91 µM
- GI50 (UO-31 renal): 0.195 µM
- GI50 (SN12C renal): 0.431 µM
- TGI (SW-620 colon): > 4.83 µM and 6.87 µM and 1.64 µM
- TGI (K-562 leukemia): > 9.25 µM and 11.2 µM
- GI50 (LOX IMVI melanoma): 0.574 µM
- TGI (LOX IMVI melanoma): 1.3 µM and 3.18 µM
- TGI (HS 578T breast): 7.66 µM
- TGI (NCI-H23 lung): > 7.19 µM and 1.15 µM
- GI50 (HOP-92 NSCLC): 0.255 µM
- GI50 (NCI-H226 lung): 0.252 µM
- GI50 (KM20L2 colon): 0.66 µM
- TGI (KM20L2 colon): > 5.6 µM
- TGI (MCF7 breast): 10.5 µM
- TGI (MOLT-4 leukemia): > 7.73 µM and 24.6 µM
- GI50 (SNB-19 CNS): 0.407 µM
- TGI (SNB-19 CNS): 1.32 µM and 5.45 µM and 1.19 µM
- TGI (XF 498 CNS): 0.622 µM and 0.698 µM
- GI50 (DMS 273 small cell lung): 0.282 µM
- TGI (DMS 273 small cell lung): 1.26 µM and 4.29 µM
- GI50 (IGROV1 ovarian): 0.27 µM
- TGI (IGROV1 ovarian): 0.688 µM and 4.45 µM and 4.6 µM
- TGI (UACC-62 melanoma): 4.97 µM and 8.94 µM and 1.76 µM
- GI50 (SF-295 CNS): 0.275 µM
- TGI (NCI/ADR-RES ovarian): 17.1 µM
- GI50 (CCRF-CEM leukemia): 0.253 µM and 0.709 µM
- TGI (CCRF-CEM leukemia): 2.02 µM and 4.52 µM
- GI50 (HOP-62 NSCLC): 0.442 µM
- GI50 (786-0 renal): 0.21 µM
- TGI (UACC-257 melanoma): 1.84 µM and 3.94 µM and 1.62 µM
- TGI (SK-MEL-28 melanoma): 0.581 µM and 1.69 µM and 0.244 µM
- GI50 (SK-MEL-5 melanoma): 0.31 µM
- TGI (SK-MEL-5 melanoma): 1.23 µM and 3.62 µM and 1.27 µM
- GI50 (DMS 114 small cell lung): 2 µM
- TGI (DMS 114 small cell lung): 5.21 µM and 9.71 µM
